This passage reports IC50 results from ChEMBL document CHEMBL3301448, “MMV Malaria Box screening against Toxoplasma gondii and Entamoeba histolytica”.

As usually defined, the IC50 is the concentration that inhibits the measured activity by half.

SMILES strings stand for the structures. A value given as a limit tells only on which side of the number the result lay.

One experiment has as its system Entamoeba histolytica. In words: MMV: Primary screening was performed with each compound at a 30 uM final concentration and in triplicate in sealed 96-well polystyrene microtiter plates. Parasite inocula (100 ul) comprising 20000 parasites/ml were added to each well and grown at 37 degrees C in a humidified atmosphere of 5% CO2 for 72 h. Positive controls consisted of metronidazole at 1 mg/ml. The growth of E. histolytica trophozoites in each well was determined microscopically by measuring the diameters of the confluent cells in drug-containing wells relative to those in the nega- tive-control wells. The format is functional, organism-based.

The subject of the next experiment is Toxoplasma gondii. In words: MMV: A total of 100ul of inoculum was added to each well (parasite/cell ratio, ~10:1; final volume, 200 ul). Six hours after inoculation, nonadherent parasites were removed, and 100 ul of complete DMEM (1% penicillin-streptomycin, 3% FBS) supplemented with inhibitors at different concentrations (2-fold serial dilutions starting from 30 uM) was added to all except the negative-control wells. Positive controls, consisting of pyrimethamine (PYR) and sulfadiazine (SDZ) (20-mg/ml stocks in DMSO), were tested at a 2mg/ml final concentration. Each test was performed in triplicate. The format is functional, organism-based. To be noted: 6 h.

For `O=C(Nc1ccc(Cl)c(Cl)c1)Nc1ccc(Cl)c(Cl)c1`, the IC50 in the experiment on Entamoeba histolytica and in the experiment on Toxoplasma gondii was greater than 30 µM throughout.
Turning to `N=c1n(CCN2CCCCC2)c2ccccc2n1CC(=O)c1ccc(Cl)c(Cl)c1`, the IC50 with Entamoeba histolytica and in the experiment with Toxoplasma gondii was greater than 30 µM each time.
`COc1ccc(-c2nc(N3CCN(C(=O)C4CCCCC4)CC3)c3c4c(sc3n2)CCCC4)cc1`: the half-inhibitory concentration (IC50) in the experiment with Entamoeba histolytica and in the experiment with Toxoplasma gondii was greater than 30 µM each time.
As for `Cc1sc(NC(=O)c2ccco2)c(C(c2cccnc2)N2CCC(Cc3ccccc3)CC2)c1C` (stereo unspecified), the IC50 in the experiment with Entamoeba histolytica and in the experiment on Toxoplasma gondii was greater than 30 µM in each case.
Consider `COc1cc(C(=O)Nc2nc3c(cc4c5c(cccc53)CC4)s2)cc(OC)c1OC`, for which the concentration for half-maximal inhibition (IC50) in the experiment with Entamoeba histolytica and with Toxoplasma gondii was greater than 30 µM in each case.
As to `COc1ccc(CCN2C(=O)c3[nH]nc(-c4cc(Cl)c(C)cc4O)c3C2c2ccccc2F)cc1` (stereo unspecified), the concentration for half-maximal inhibition (IC50) in the experiment with Entamoeba histolytica and with Toxoplasma gondii was greater than 30 µM each time.
For `OC1=C2C(=Nc3ccccc3SC2c2ccccc2)c2ccccc21` (stereo unspecified), the half-inhibitory concentration (IC50) in the experiment with Entamoeba histolytica and in the experiment on Toxoplasma gondii was greater than 30 µM in each case.
On to `COc1cc(C(=O)Nc2ccc(-c3nc4ccccc4[nH]3)cc2)cc(OC)c1OC`, for which the 50% inhibitory concentration (IC50) in the experiment with Entamoeba histolytica and with Toxoplasma gondii was greater than 30 µM each time.
In the case of `CCOc1ccc(N2C(N)=NC(N)=NC2(C)C)cc1`, the concentration for half-maximal inhibition (IC50) in the experiment with Entamoeba histolytica and in the experiment with Toxoplasma gondii was greater than 30 µM in each case.
As to `COC(=O)c1ccc(C2C3=C(O)CC(c4ccc(F)cc4)CC3=Nc3ccccc3N2C(=O)c2ccccc2)cc1` (stereo unspecified), the IC50 in the experiment on Entamoeba histolytica and in the experiment on Toxoplasma gondii was greater than 30 µM each time.
Regarding `O=C(CCl)NCCOc1ccc(Cl)cc1Cl`, the concentration for half-maximal inhibition (IC50) in the experiment on Entamoeba histolytica and in the experiment with Toxoplasma gondii was greater than 30 µM each time.
For `CCOc1ccc(CN2CCN(CC(O)COc3ccc(OCC(O)CN4CCN(Cc5ccc(OCC)cc5)CC4)cc3)CC2)cc1` (stereo unspecified), the half-inhibitory concentration (IC50) in the experiment with Entamoeba histolytica and with Toxoplasma gondii was greater than 30 µM throughout.
Regarding `CCCCNc1nc(NC(C)(C)C)nc(NC(C)(C)C)n1`, the half-maximal inhibitory concentration (IC50) in the experiment with Entamoeba histolytica and with Toxoplasma gondii was greater than 30 µM throughout.
In the case of `COc1ccc(CCn2c(=N)c(C(=O)NCc3cccnc3)cc3c(=O)n4cccc(C)c4nc32)cc1`, the IC50 in the experiment on Entamoeba histolytica and with Toxoplasma gondii was greater than 30 µM each time.
`CC(=O)c1sc(NC(=O)Nc2ccc(C)cc2C)nc1C`: the IC50 in the experiment with Entamoeba histolytica and in the experiment on Toxoplasma gondii was greater than 30 µM throughout.
Take `COc1ccc(Nc2cc(C)nc(NCc3ccccc3)n2)cc1`: the IC50 in the experiment on Entamoeba histolytica and with Toxoplasma gondii was greater than 30 µM throughout.
With `Oc1ccc2ccccc2c1CNc1nc2ccccc2[nH]1`, the concentration for half-maximal inhibition (IC50) in the experiment on Entamoeba histolytica and in the experiment with Toxoplasma gondii was greater than 30 µM throughout.
Turning to `O=C(Nc1ccc(-c2nc3ccccc3[nH]2)cc1)c1ccc(Cl)c(Cl)c1`, the concentration for half-maximal inhibition (IC50) in the experiment on Entamoeba histolytica and in the experiment with Toxoplasma gondii was greater than 30 µM throughout.
Turning to `O=C1c2ccc3c4c(ccc(c24)C(=O)N1CCCCO)C(=O)N(CCCCO)C3=O`, the concentration for half-maximal inhibition (IC50) in the experiment on Entamoeba histolytica and in the experiment on Toxoplasma gondii was greater than 30 µM throughout.
Take `COc1ccc(C(=O)C(CCC(CNC(C)(C)C)C(=O)c2ccc(OC)cc2)CNC(C)(C)C)cc1` (stereo unspecified): the IC50 is greater than 30 µM with Entamoeba histolytica and 8.23 µM with Toxoplasma gondii.
On to `COc1cc(C(=O)ON=C(N)Cc2cccc3ccccc23)cc(OC)c1OC`, for which the IC50 in the experiment with Entamoeba histolytica and with Toxoplasma gondii was greater than 30 µM each time.
For the molecule `Oc1c(C(Nc2ccccn2)c2cccc(Oc3ccccc3)c2)ccc2cccnc12` (stereo unspecified), the IC50 in the experiment on Entamoeba histolytica and in the experiment on Toxoplasma gondii was greater than 30 µM throughout.
Take `COc1cc(-c2nc(-c3ccccc3)c(-c3ccccc3)[nH]2)cc(OC)c1O`: the half-maximal inhibitory concentration (IC50) with Entamoeba histolytica and with Toxoplasma gondii was greater than 30 µM throughout.
Consider `CCn1c2c(c(=N)c3c1CCC3)CCCC2`, for which the IC50 in the experiment on Entamoeba histolytica and in the experiment on Toxoplasma gondii was greater than 30 µM each time.
On to `COc1cc(CNCCc2ccc(Cl)cc2)cc(OC)c1O`, for which the 50% inhibitory concentration (IC50) in the experiment with Entamoeba histolytica and in the experiment on Toxoplasma gondii was greater than 30 µM each time.
As to `Cc1ccc2c(C)nc(Nc3nc(C)cc(-c4ccccc4)n3)nc2c1`, the 50% inhibitory concentration (IC50) in the experiment with Entamoeba histolytica and in the experiment on Toxoplasma gondii was greater than 30 µM in each case.
For the molecule `CCOc1ccc(Nc2ccnc3cc(Cl)ccc23)cc1`, the IC50 in the experiment with Entamoeba histolytica and in the experiment on Toxoplasma gondii was greater than 30 µM throughout.
For `Cc1ccc(C)c(-c2csc(Nc3ccc(C)c(C)c3)n2)c1`, the 50% inhibitory concentration (IC50) in the experiment on Entamoeba histolytica and in the experiment on Toxoplasma gondii was greater than 30 µM in each case.
